The values below come from US20030186950A1, “Use of n-heterocyclic substituted salicylates for inhibition of cellular uptake of cystine” (priority 2000, published 2003).

Entries after “also recorded” stand apart in the source; their conditions may differ.

Data set [1] has as its system Nb2-SFJCD1 rat lymphoma cells. The data set is described as follows: Culture growth inhibition assay in Nb2-SFJCD1 lymphoma cultures. It counts as cell-based. The note with it: for Growth-inhibitory activity: 0.1-0.3 mM (FIG. 2); for IC50: 45 h, Fischer's medium with 10.0% horse gelding serum, read-out: IC50 (mM) Average ± S.D., growth inhibition. The method, then:
(§1) Nb2 lymphoma is of a pre-T cell origin. The parental line (Nb2 U17) is non-metastatic as subcutaneous implants whereas subline Nb2-SFJCD1 is highly metastatic. Nb2-SFJCD1 cultures (doubling time=12-13 hr) were maintained in Fischer's medium (Sigma-Aldrich), supplemented with 10.0% horse gelding serum (lactogen-deficient; one batch, ICN Biomedicals, Inc., Auroro, Ohio), penicillin (50 U/ml) and streptomycin (50 μg/ml). In this medium the cells grow as clumps which can be readily dispersed. Nb2 lymphoma cell lines are used by a number of laboratories; the Nb2-11 subline, is available from the European Collection of Animal Cell Cultures (ECACC) in Salisbury, U.K. The Nb2-U17 and Nb2-SJFCD1 cell lines are available from Dr. Peter W. Gout, B.C. Cancer Research Centre, Vancouver, B.C., Canada.
Nb2-SFJCD1 cells from log phase cultures were centrifuged (3.5 min at 350×g) and gently resuspended in fresh Fisher's medium containing 10% horse gelding serum. Aliquots (1.80 ml) were distributed in 12-well tissue culture plates (Linbro, Flow Laboratories, Mississauga, ON, Canada) and preincubated for 3-5 hours at 37° C. in a water-saturated 5% CO2/air atmosphere. Solutions of the drugs (200 μl portions) were then added to the cultures for a 45 hour incubation (Cin=1.0×10^5 cells/ml). Cell populations were determined using an electronic counter (Coulter Electronics, Hialeah, Fla.).

For data set [2] the following is noted: as reported in the literature for patients/controls undergoing treatment; cited from earlier work.
Data set [3] deals with MCF-7 human breast carcinoma cell line. The data set is described as follows: Cell proliferation of MCF-7 breast carcinoma cells. It counts as cell-based. The text has this:
(§2) The effect of sulfasalazine on cell proliferation was subsequently assessed.

The next data set deals with Nb2-U17 tumor transplant. The data set is described as follows: Tumor growth inhibition in Nb rats with subcutaneous Nb2-U17 lymphoma transplants. It is filed as in vivo, rat. The note with it: b.i.d.; for Average tumor size after 7 days: controls 12.6 gr. The method, then:
A colony of Nb rats is maintained in the British Columbia Cancer Research Centre Vancouver, B.C., Canada. Approximately equal portions of minced Nb2-U17 tumor tissue, developed subcutaneously in a rat following injection of cultured Nb2-U17 cells, were injected by trocar subcutaneously in the nape of the neck of groups of male Nb rats (one injection per rat), that had been lightly anesthetized with isoflurane (Abbott Laboratories Ltd., Montreal, Canada). […] 2% CMC or saline were used for controls. Drug preparation and administration were carried out under subdued light conditions. Food and water were provided ad libitum. Tumor size, body weight and general health of the rats were monitored twice a day. Tumor size was measured using calipers and expressed in grams using the formula: π/6×length×width×height in cm. […] On necropsy the animals were examined for evidence of metastatic spread with particular attention to tissues such as kidneys, liver and spleen, the target tissues of metastatic Nb2 lymphoma cells. Tissue sections were taken for histologic analysis. Non-tumor-bearing animals were used to establish maximally tolerated dosages.
Groups of male rats (350-400 gr) were used, each carrying a single, well-developed, rapidly growing, non-metastatic, subcutaneous Nb2-U17 tumor transplant in the nape of the neck. Non-metastatic Nb2-U17 tumors were employed to avoid dissemination of cells from the tumor which would interfere with measurements of drug-induced changes in tumor mass. […] The animals were treated for a 7-day period, with drug administration taking place at approximately 12 hour intervals in an attempt to maintain elevated levels of the drug in the circulation.

Data set [4] has as its system MDA-MB-231 human breast carcinoma cell line. The data set is described as follows: Cell proliferation of MDA-MB-231 breast carcinoma cells. It counts as cell-based. The note with it: 2-ME 60 μM.
Description: as §2

The conditions of data set [5]: rat, in vivo, ip. An excerpt:
2% CMC or saline were used for controls. […] Food and water were provided ad libitum. […] Tissue sections were taken for histologic analysis.
Reduced tumor growth in the animals was therefore not the result of drug-induced dissemination of tumor cells from the transplant site, but reflected genuine, tumor growth inhibition. […] During therapy the animals remained active and their eyes stayed bright; there was no evidence of diarrhea, or changes in the appearance of their fur.

The test system of data set [6] is DoHH2 cells (human B-cell non-Hodgkin's lymphoma). The data set is described as follows: Culture growth inhibition assay in DoHH2 cultures. The note with it: for Growth-inhibitory activity: medium with 5% FBS + 5% horse serum (FIG. 4). It counts as cell-based. The protocol: as §1, with “Canada. DoHH2 cell suspension cultures (doubling time ca. 20 hours) were maintained in RPMI-1640 medium (Stem Cell Technology, Vancouver, B.C., Canada) containig fetal bovine serum (5%), horse serum (5%) and antibiotics.” for “Canada.”
Assays using DoHH2 cells were similarly performed, using their maintenance medium; Cin=ca. 1.5×10^5 cells/ml (see: Kluin-Nelemans, H. C. et al. (1991) Leukemia 5:221.)

The IC50 is the midpoint of a concentration-inhibition curve.

For the compound `Nc1ccc(O)c(C(=O)O)c1` [5-aminosalicylic acid], the Growth-inhibitory activity entry in data set [1] (listed as 5-ASA) was “devoid of growth-inhibitory activity”.
Regarding `CC(=O)Oc1ccccc1C(=O)O` [Acetylsalicylic acid], the inhibition at 3000 µM in data set [1] (Rattus norvegicus, 3 mM (FIG. 1), read-out: Inhibition of culture growth at therapeutic concentration) was about 50%. The IC50 in data set [1] (Rattus norvegicus) amounted to 3.09 ± 0.28 mM. Besides, the “Therapeutic drug levels in plasma” value in data set [2] was 1 to 3 mM.
Consider `COc1ccc2c(c1)c(CC(=O)O)c(C)n2C(=O)c1ccc(Cl)cc1` [Indomethacin], for which the inhibition at 20 µM in data set [1] (Rattus norvegicus, 0.02 mM (FIG. 1), read-out: Inhibition of culture growth at therapeutic concentration) fell in the range of 5 to 10%. Further, the IC50 in data set [1] (Rattus norvegicus) turned out to be 0.15 ± 0.01 mM. The “Therapeutic drug levels in plasma” value in data set [2] was 0.005 to 0.02 mM.
As for `N[C@@H](CCC(=O)O)C(=O)[O-].[Na+]` [Monosodium glutamate], in data set [3] (10 mM), the Inhibition of proliferation entry was “inhibited proliferation in MCF-7 cells to an extent similar to that observed for sulfasalazine”. Besides, in data set [3] (10 mM, 2-ME added), the “Effect of 2-ME addition on inhibition of proliferation” value is reported as “completely negated this effect”.
With `O=C([O-])c1ccccc1O.[Na+]` [Salicylate, sodium, sodium salicylate], the “Inhibition of tumor growth” value in the data set with Nb2-U17 tumor transplant (i.p. 150 mg/kg body wt, 7 days, 150 mg/kg) was “did not inhibit tumor growth; also recorded: had no effect”.
As to `O=C(O)c1cc(/N=N/c2ccc(S(=O)(=O)Nc3ccccn3)cc2)ccc1O` [Sulfasalazine], the “Average tumor size after 7 days” value worked out at 3.43 gr in the data set on Nb2-U17 tumor transplant (i.p. 200 mg/kg body wt, start 0.93 gr) and 2.65 gr in the data set on Nb2-U17 tumor transplant (i.p. 250 mg/kg body wt, start 0.60 gr). Besides, the “Tumor growth suppression in three of the 13 cases” value in the data set with Nb2-U17 tumor transplant (i.p. 200 or 250 mg/kg body wt, 7 days) is 90-100%. For the same compound, in the data set with Nb2-U17 tumor transplant (oral 500 mg/kg body wt, 7 days), the Lymphoma growth-inhibitory effect result is “only minor lymphoma growth-inhibitory effect”. Further, the “Antagonism of inhibitory action by 2-ME” value in data set [4] was “completely antagonized”. In addition, the Maximally tolerated dose in data set [5] (Nb, 7 days) is 250 mg/kg body wt, b.i.d. Moreover, the Side effects result in data set [5] was “no major side effects”. Besides, the “Effect on culture growth” value in data set [1] (0.15 mM, 45 hour experiment) was “only partially arrested growth”. Further, the Cell lysis result in data set [1] (0.2 mM, period 24-45 hours) is “induced severe cell lysis”; in data set [6] (1.5% FBS, 0.05 mM, at hr 45 (FIG. 4)), “extensive cell lysis”. The values for the Growth-inhibitory activity result in data set [1], in data set [6] and in data set [6] (listed as sulfasalazine) were “highly potent”, “sensitivity to the drug which was similar to that of rat Nb2 lymphoma cells” and “markedly inhibited the growth”, respectively. Moreover, in data set [1] (cystine at ca. 3-fold elevated levels (FIG. 5)), the “Change of growth-inhibitory effect by elevated cystine” value is listed as “substantially reduced”. For the same compound, the IC50 in data set [3] (Homo sapiens, MCF7, MCF-7, read-out: IC50, growth inhibition) was 500 ± 100 µM.
For `Nc1ccc(S(=O)(=O)Nc2ccccn2)cc1` [sulfapyridine], in data set [1], the Growth-inhibitory activity entry is recorded as “devoid of growth-inhibitory activity”.
